Measured values published in patent publication US20070178147A1, “Liposomal compositions” (priority 2005, published 2007).
≈ marks a conversion by molar mass, not a printed value.

What was measured:
[1] = Precipitation of Compound 1 from cosolvent systems upon addition of water; type: physicochemical; settings: cosolvent systems of PEG 400 or 300, Benzyl Alcohol, Ethanol and low amounts of bile salts; water at 30% levels in final mixture
Source text: In additional combinations as cosolvent systems, of PEG 400 or 300, Benzyl Alcohol, Ethanol and low amounts of bile salts (e.g. Sodium Deoxytauro Cholate), Compound 1 precipitated upon an addition of water at 30% levels in the final aqueous-organic mixture.

[2] = Solubility of Compound 1 in pharmaceutical solvents at 25° C.; type: physicochemical
Source text: Compound 1 is a nonpeptide vasopressin receptor antagonist and is insoluble in aqueous solutions throughout the physiological pH range (1.2 to 7.5).

Behaviour upon addition of water [1]: precipitated
solubility ([2]; aqueous buffer, 10 mM Phosphate buffer (pH 7.4), 25° C.): < 0.001 µg/mL
solubility ([2]; aqueous with cosolvent or surfactant or cyclodextrin, Aqueous solution of Poloxamer 188 (10, 20 and 30%), 25° C.): < 0.001 µg/mL
solubility ([2]; aqueous with cosolvent or surfactant or cyclodextrin, Cremophor EL, 25° C.): 5100 µg/mL (≈ 10800 µM)
solubility ([2]; aqueous with cosolvent or surfactant or cyclodextrin, Gelucire 48109, 25° C.): 2260 µg/mL (≈ 4770 µM)
solubility ([2]; aqueous with cosolvent or surfactant or cyclodextrin, Labrasol, 25° C.): 7500 µg/mL (≈ 15800 µM)
solubility ([2]; aqueous with cosolvent or surfactant or cyclodextrin, PEG 300/Alcohol/Water (40:30:30), 25° C.): 280 µg/mL (≈ 591 µM)
solubility ([2]; aqueous with cosolvent or surfactant or cyclodextrin, Sodium Lauryl sulfate, 25° C.): 20 µg/mL (≈ 42.2 µM)
solubility ([2]; fassgf or other biorelevant, SIF without enzyme, 25° C.): < 0.001 µg/mL
solubility ([2]; oil or lipid, Ethyl oleate, 25° C.): 200 µg/mL (≈ 422 µM)
solubility ([2]; oil or lipid, Miglyol 812, 25° C.): 290 µg/mL (≈ 612 µM)
solubility ([2]; oil or lipid, Neobee M5, 25° C.): 520 µg/mL (≈ 1100 µM)
solubility ([2]; oil or lipid, Oleic acid, 25° C.): 40 µg/mL (≈ 84.4 µM)
solubility ([2]; oil or lipid, Olive oil, 25° C.): 30 µg/mL (≈ 63.3 µM)
solubility ([2]; oil or lipid, Propylene glycol Laurate, 25° C.): 680 µg/mL (≈ 1430 µM)
solubility ([2]; oil or lipid, Safflower oil, 25° C.): < 0.001 µg/mL
solubility ([2]; oil or lipid, Soybean oil, 25° C.): < 0.001 µg/mL
solubility ([2]; organic solvent or mixture, Benzyl Alcohol, 25° C.): 21000 µg/mL (≈ 44400 µM)
solubility ([2]; organic solvent or mixture, Benzyl Benzoate, 25° C.): 3410 µg/mL (≈ 7200 µM)
solubility ([2]; organic solvent or mixture, Ethanol, 25° C.): 1890 µg/mL (≈ 3990 µM)
solubility ([2]; organic solvent or mixture, PEG 300, 25° C.): 14900 µg/mL (≈ 31400 µM)
solubility ([2]; organic solvent or mixture, PEG 300/Alcohol (50:50), 25° C.): 8750 µg/mL (≈ 18500 µM)
solubility ([2]; organic solvent or mixture, PEG 400, 25° C.): 26300 µg/mL (≈ 55500 µM)
solubility ([2]; organic solvent or mixture, PEG 400/Benzyl Alcohol (80:20), 25° C.): 14600 µg/mL (≈ 30800 µM)
solubility ([2]; organic solvent or mixture, Triacetin, 25° C.): 2700 µg/mL (≈ 5700 µM)
Solubility in partially aqueous solvents ([2]; partially aqueous solvents of pharmaceutically acceptable hydrophilic and lipophilic solvents): limited solubility
solubility ([2]; plasma or biological fluid, Human Serum Albumin, 25° C.): 16 µg/mL (≈ 33.8 µM)
solubility ([2]; propylene glycol (printed: Propylyne glycol), organic solvent or mixture, Propylyne glycol, 25° C.): 600 µg/mL (≈ 1270 µM)
solubility ([2]; simulated gastric fluid, SGF without enzyme, 25° C.): < 0.001 µg/mL
Solubility in aqueous solutions ([2]; throughout the physiological pH range (1.2 to 7.5)): insoluble
Structure (SMILES): Cc1ccc(F)cc1C(=O)Nc1ccc(C(=O)N2Cc3cccn3Cc3ccccc32)c(Cl)c1 [Compound 1, 5-fluoro-2-methyl-N-[4-(5H-pyrrolo[2,1-c][1,4]benzodiazepin-10(11H)-ylcarbonyl)-3-chlorophenyl]benzamide]
